Experiments:
Type in all cases: binding
[1] = molecular target: T1, HeLa cell extract proteins (Homo sapiens, UniProt P31943); settings: HeLa; protein HNRNPH1
T1 construct: endogenous in cells; host or cells: HeLa cell extract
T1 sequence (P31943 1-449): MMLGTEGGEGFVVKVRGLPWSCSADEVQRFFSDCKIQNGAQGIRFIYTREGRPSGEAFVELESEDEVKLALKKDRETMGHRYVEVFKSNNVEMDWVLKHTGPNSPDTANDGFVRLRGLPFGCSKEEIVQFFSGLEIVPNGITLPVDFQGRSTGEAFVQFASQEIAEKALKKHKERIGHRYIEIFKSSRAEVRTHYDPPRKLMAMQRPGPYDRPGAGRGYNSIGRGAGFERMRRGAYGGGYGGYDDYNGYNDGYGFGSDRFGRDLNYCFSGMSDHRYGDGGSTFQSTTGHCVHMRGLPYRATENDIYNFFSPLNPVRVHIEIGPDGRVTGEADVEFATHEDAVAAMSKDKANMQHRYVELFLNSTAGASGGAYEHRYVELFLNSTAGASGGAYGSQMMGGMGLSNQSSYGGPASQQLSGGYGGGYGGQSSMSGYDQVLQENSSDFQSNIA

[2] = molecular target: T2, HeLa cell extract proteins (Homo sapiens, UniProt P23528); settings: HeLa; protein CFL1 (COFILIN-1.)
T2 construct: endogenous in cells; host or cells: HeLa cell extract

[3] = molecular target: T3, HeLa cell extract proteins (Homo sapiens, UniProt Q96CN7); settings: protein ISOC1; HeLa
T3 construct: endogenous in cells; host or cells: HeLa cell extract
T3 sequence (Q96CN7 1-298): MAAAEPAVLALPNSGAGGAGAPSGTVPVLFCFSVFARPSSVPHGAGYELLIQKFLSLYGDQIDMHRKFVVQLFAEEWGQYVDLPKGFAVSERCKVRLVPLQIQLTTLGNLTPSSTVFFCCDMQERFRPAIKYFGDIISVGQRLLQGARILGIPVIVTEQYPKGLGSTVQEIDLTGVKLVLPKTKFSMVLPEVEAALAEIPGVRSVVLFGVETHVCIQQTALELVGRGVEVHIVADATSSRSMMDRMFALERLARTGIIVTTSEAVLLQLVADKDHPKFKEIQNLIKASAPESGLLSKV

[4] = molecular target: T4, HeLa cell extract proteins (Homo sapiens, UniProt Q08380); settings: protein LGALS3BP; HeLa
T4 construct: endogenous in cells; host or cells: HeLa cell extract
T4 sequence (Q08380 19-585): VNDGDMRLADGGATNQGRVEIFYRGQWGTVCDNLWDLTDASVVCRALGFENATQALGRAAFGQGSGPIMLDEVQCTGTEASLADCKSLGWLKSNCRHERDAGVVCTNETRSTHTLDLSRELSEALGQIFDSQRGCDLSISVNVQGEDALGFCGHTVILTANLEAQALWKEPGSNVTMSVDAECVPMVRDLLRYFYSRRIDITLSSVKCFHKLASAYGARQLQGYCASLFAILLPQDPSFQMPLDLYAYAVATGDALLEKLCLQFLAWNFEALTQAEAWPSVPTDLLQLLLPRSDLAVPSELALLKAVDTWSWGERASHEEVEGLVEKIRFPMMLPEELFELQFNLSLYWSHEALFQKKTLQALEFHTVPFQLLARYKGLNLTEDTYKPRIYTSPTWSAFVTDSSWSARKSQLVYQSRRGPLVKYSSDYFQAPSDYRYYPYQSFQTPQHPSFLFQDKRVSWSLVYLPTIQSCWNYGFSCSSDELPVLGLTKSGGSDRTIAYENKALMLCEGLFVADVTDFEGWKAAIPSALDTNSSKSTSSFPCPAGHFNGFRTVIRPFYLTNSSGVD

[5] = molecular target: T5, HeLa cell extract proteins (Homo sapiens, UniProt Q96P70); settings: captured protein IPO9; HeLa
T5 construct: endogenous in cells; host or cells: HeLa cell extract

[6] = molecular target: T6, HeLa cell extract proteins (Homo sapiens, UniProt P08865); settings: captured protein RPSA; HeLa
T6 construct: endogenous in cells; host or cells: HeLa cell extract

[7] = molecular target: T7, HeLa cell extract proteins (Homo sapiens, UniProt P61457); settings: captured protein PCBD1; HeLa
T7 construct: endogenous in cells; host or cells: HeLa cell extract
T7 sequence (P61457 1-104): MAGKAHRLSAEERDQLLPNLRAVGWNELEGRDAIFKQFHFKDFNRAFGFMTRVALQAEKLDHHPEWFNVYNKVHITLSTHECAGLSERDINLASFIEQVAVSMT

[8] = molecular target: T8, HeLa cell extract proteins (Homo sapiens, UniProt P15311); settings: protein EZR; HeLa
T8 construct: endogenous in cells; host or cells: HeLa cell extract

[9] = molecular target: T9, HeLa cell extract proteins (Homo sapiens, UniProt O14818); settings: protein PSMA7; HeLa
T9 construct: endogenous in cells; host or cells: HeLa cell extract
T9 sequence (O14818 1-248): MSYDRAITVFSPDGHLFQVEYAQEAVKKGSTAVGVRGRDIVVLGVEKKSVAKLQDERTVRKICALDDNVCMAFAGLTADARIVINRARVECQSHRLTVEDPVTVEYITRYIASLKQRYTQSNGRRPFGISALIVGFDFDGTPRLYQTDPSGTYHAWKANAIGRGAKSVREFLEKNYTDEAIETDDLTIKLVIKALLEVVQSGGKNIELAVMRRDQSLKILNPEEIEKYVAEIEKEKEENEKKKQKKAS

[10] = molecular target: T10, HeLa cell extract proteins (Homo sapiens, UniProt P06744); settings: HeLa; protein GPI (CDNA FLJ56429, HIGHLY SIMILAR TO GLUCOSE-6-PHOSPHATE ISOMERASE.)
T10 construct: endogenous in cells; host or cells: HeLa cell extract

[11] = molecular target: T11, HeLa cell extract proteins (Homo sapiens, UniProt Q14974); settings: protein KPNB1; HeLa
T11 construct: endogenous in cells; host or cells: HeLa cell extract

[12] = molecular target: T12, HeLa cell extract proteins (Homo sapiens, UniProt Q96EY8); settings: HeLa; protein MMAB
T12 construct: endogenous in cells; host or cells: HeLa cell extract
T12 sequence (Q96EY8 33-250): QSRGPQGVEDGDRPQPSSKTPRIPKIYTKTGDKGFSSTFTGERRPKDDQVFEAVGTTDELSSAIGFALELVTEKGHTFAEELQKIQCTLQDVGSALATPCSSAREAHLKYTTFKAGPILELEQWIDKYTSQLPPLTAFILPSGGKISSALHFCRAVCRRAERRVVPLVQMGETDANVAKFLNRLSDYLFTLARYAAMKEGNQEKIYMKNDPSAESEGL

[13] = molecular target: T13, HeLa cell extract proteins (Homo sapiens, UniProt P13073); settings: HeLa; protein COX4I1
T13 construct: endogenous in cells; host or cells: HeLa cell extract
T13 sequence (P13073 23-169): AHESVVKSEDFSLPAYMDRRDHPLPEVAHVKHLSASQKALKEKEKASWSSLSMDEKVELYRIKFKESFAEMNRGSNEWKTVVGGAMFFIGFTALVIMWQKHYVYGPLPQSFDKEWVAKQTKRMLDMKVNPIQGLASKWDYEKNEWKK

T2 sequence (P23528 whole entry): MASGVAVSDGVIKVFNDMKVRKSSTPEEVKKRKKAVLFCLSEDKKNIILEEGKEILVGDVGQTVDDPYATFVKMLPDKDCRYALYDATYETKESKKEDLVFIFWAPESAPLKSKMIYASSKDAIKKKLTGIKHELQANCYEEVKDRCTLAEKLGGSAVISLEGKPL
T5 sequence (Q96P70 whole entry): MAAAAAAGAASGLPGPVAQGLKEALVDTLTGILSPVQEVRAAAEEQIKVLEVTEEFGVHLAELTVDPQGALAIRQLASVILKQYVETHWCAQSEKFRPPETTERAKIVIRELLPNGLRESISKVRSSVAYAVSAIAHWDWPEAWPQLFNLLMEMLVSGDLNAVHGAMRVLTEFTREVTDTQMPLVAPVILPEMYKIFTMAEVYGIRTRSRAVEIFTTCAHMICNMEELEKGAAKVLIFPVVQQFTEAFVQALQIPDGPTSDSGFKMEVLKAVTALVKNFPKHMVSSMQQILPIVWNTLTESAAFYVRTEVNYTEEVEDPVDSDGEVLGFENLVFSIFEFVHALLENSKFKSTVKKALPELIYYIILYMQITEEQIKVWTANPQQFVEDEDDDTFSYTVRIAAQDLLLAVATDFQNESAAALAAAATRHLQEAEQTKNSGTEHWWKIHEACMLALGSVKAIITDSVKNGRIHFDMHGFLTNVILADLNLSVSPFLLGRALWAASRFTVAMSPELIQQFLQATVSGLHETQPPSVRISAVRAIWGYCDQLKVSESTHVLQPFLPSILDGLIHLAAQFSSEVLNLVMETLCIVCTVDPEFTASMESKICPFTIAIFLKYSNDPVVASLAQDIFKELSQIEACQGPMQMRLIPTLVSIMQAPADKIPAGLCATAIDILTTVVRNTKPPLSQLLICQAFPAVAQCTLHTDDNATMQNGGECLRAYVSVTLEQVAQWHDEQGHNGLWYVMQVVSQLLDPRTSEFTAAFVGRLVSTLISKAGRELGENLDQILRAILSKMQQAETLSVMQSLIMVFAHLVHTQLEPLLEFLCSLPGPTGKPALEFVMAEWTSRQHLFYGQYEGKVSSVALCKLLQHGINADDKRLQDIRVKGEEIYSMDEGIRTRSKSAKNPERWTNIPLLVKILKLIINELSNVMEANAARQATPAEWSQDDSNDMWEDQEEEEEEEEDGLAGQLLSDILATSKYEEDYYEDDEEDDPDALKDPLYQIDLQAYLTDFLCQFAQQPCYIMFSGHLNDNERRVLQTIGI
T11 sequence (Q14974 whole entry): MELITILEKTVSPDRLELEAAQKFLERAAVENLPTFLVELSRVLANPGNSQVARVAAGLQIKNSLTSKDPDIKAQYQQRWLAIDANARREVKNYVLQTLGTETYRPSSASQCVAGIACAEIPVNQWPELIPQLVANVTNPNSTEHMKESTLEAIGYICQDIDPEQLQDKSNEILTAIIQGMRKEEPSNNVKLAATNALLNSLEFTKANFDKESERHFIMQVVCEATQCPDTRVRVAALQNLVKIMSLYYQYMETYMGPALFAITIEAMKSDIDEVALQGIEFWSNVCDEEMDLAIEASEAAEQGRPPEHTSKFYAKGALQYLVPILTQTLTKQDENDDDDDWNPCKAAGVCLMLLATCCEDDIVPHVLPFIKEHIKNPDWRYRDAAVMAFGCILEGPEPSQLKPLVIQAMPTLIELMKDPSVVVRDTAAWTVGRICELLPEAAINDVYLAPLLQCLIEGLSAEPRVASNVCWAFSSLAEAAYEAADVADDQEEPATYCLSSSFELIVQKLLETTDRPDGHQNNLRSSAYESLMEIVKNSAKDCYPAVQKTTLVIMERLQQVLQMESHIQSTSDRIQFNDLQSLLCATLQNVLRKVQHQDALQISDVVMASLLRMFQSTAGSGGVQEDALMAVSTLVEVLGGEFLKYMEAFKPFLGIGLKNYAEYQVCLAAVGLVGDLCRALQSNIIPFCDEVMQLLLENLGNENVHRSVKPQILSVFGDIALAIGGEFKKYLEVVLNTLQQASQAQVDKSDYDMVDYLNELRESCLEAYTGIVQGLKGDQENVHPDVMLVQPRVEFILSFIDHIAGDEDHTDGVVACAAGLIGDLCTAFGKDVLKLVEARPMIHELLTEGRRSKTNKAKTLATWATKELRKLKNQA
T8 sequence (P15311 whole entry): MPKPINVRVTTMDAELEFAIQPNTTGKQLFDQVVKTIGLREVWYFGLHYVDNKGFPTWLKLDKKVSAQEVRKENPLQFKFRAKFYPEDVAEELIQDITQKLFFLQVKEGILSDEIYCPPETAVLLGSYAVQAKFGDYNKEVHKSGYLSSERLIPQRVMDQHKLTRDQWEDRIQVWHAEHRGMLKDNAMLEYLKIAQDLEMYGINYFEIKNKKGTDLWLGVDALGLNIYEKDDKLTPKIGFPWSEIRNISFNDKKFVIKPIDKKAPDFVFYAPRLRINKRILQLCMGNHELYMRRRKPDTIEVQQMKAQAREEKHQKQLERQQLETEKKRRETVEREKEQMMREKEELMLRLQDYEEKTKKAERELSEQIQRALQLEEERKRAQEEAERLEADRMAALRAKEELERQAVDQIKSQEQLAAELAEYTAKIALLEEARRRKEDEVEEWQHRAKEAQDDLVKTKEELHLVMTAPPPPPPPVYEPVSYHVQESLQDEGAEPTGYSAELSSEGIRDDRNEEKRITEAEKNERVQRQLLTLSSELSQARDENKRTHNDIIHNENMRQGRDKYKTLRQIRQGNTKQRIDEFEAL

CCCCCCOc1cccc(Cc2cnc(N)nc2N)c1 [compound 2]
fold changes relative to vehicle control [1]: 1.02 | fold changes relative to vehicle control [2]: 2.02 fold | fold changes relative to vehicle control [3]: 1.01 | fold changes relative to vehicle control [4]: 0.95 | fold changes relative to vehicle control [5]: 1.14 | fold changes relative to vehicle control [6]: 1.11 | fold changes relative to vehicle control [7]: 0.96 | fold changes relative to vehicle control [8]: 1.87 | fold changes relative to vehicle control [9]: 1.3 | fold changes relative to vehicle control [10]: 2.26 fold | fold changes relative to vehicle control [11]: 1.6 | fold changes relative to vehicle control [12]: 0.94 | fold changes relative to vehicle control [13]: 1.21
